Columns and labels:
[1] = tested on: female Sprague-Dawley mature and young adult rats; assay: Ex vivo pQCT of L3 and L4 lumbar vertebrae; type: in vivo, rat; settings: L3 + L4 vertebral bodies; for pQCT Total Area / pQCT Total BMC / pQCT Total BMD / pQCT Trabecular Area / pQCT Trabecular BMC / pQCT Trabecular BMD: mean
Protocol: Peripheral QCT scans were performed ex vivo using an XCT Research SA or SA+ bone scanner with software version 5.50D. Scans were obtained for the right femur, L3 and L4 lumbar vertebra for all animals euthanized at the end of the treatment period as well as two found dead animals. These two animals were scanned twice due to technical oversight, however only the first scans obtained were reported and the second scans were kept with the study file, this had no impact on the study as both scans were considered equivalent.
For the vertebrae, the scans were obtained at the midpoint. The L3 vertebrae from four animal and L4 vertebrae from four animals were damaged at trimming and L4 vertebrae from one animal was lost during trimming, consequently, no scans were obtained on these vertebrae. Additional slices were obtained as considered appropriate to ensure the optimal scans and data acquisition.
All analyses were performed using the LOOP option of the analysis software. All other data generated as a result of the LOOP option were retained with the raw data but not reported. The most appropriate analysis mode for the femur and the lumbar vertebrae was used and documented in the raw data and the analysis details are presented in Table 6. All scan analysis data was retained and re-analyses documented.

[2] = tested on: female Sprague-Dawley mature and young adult rats; assay: Biomechanical testing: right femur 3-point bending; type: in vivo, rat; settings: ex vivo; for Femur 3-point bending AUC / Femur 3-point bending Modulus / Femur 3-point bending Peak Load / Femur 3-point bending Stiffness / Femur 3-point bending Toughness / Femur 3-point bending Ultimate Stress: mean
Protocol: Biomechanical testing was performed using an 858 Mini Bionix Servohydraulic Test System, Model 242.03. All data was collected using TestWorks® version 3.8A for TestStar™ software, version 4.0C.
At necropsy, all specimens were cleaned of excess tissue (not scraped) and individually wrapped in gauze soaked with saline, covered with plastic film and placed in an appropriately labelled plastic bag. Bone samples were retained frozen (ca −20° C.) until subjected to the following biomechanical evaluations:
For 3-point bending, the right femur was cleaned of soft tissue, especially at the diaphysis in the area of the span.
The right femur was tested to failure in three-point bending to determine the material properties of femoral cortical bone. The marked point on the anterior side served as the upper loading point for each femur and the actuator was set at a rate of 1 mm/sec until failure occurred. Load and displacement data were collected. Peak load was determined from the resulting load versus displacement curve and converted to ultimate stress using the radius, cross-sectional moment of inertia and the span. The work to failure was determined from the area under the curve (AUC) and toughness was calculated. Approximate midspan values for stiffness were recorded (defined as the slope of the linear/elastic region of the load versus displacement curve) and modulus was calculated using the moment of inertia obtained from the pQCT data.

For `COc1ccc(Cc2c(OC3OC(CO)C(F)C(O)C3O)n[nH]c2C(F)(F)F)cc1` (stereo not drawn) [Example 5 of formula II], the “pQCT Total Area, percent difference from Vehicle Control” value (from here on “pQCT Total Area, percent difference”) ([1]; mature adults, 10 mg/kg/day) was 2.3%, the “pQCT Total BMC, percent difference from Vehicle Control” value (“pQCT Total BMC, percent difference” below) ([1]; mature adults, 10 mg/kg/day) was 5.9% and the “pQCT Total BMD, percent difference from Vehicle Control” value (from here on “pQCT Total BMD, percent difference”) ([1]; mature adults, 10 mg/kg/day) was 3.6%. The “pQCT Trabecular Area, percent difference from Vehicle Control” value (shortened to “pQCT Trabecular Area, percent difference”) ([1]; mature adults, 10 mg/kg/day) was 2.4%, the “pQCT Trabecular BMC, percent difference from Vehicle Control” value (from here on “pQCT Trabecular BMC, percent difference”) ([1]; mature adults, 10 mg/kg/day) was 9.0% and the “pQCT Trabecular BMD, percent difference from Vehicle Control” value (“pQCT Trabecular BMD, percent difference” below) ([1]; mature adults, 10 mg/kg/day) was 6.9%. The “pQCT Total Area” value ([1]; mature adults, 10 mg/kg/day) was 7.7 mm^2, the “pQCT Total BMC” value ([1]; mature adults, 10 mg/kg/day) was 5.6 mg/mm and the “pQCT Total BMD” value ([1]; mature adults, 10 mg/kg/day) was 727.9 mg/cm^3. For the same molecule, the “pQCT Trabecular Area” value ([1]; mature adults, 10 mg/kg/day) was 3.5 mm^2, the “pQCT Trabecular BMC” value ([1]; mature adults, 10 mg/kg/day) was 1.7 mg/mm and the “pQCT Trabecular BMD” value ([1]; mature adults, 10 mg/kg/day) was 486.9 mg/cm^3. For the same molecule, the “pQCT Total Area, percent difference” value ([1]; mature adults, 50 mg/kg/day) was 7.4%, the “pQCT Total BMC, percent difference” value ([1]; mature adults, 50 mg/kg/day) was 12.4% and the “pQCT Total BMD, percent difference” value ([1]; mature adults, 50 mg/kg/day) was 4.5%. For the same molecule, the “pQCT Trabecular Area, percent difference” value ([1]; mature adults, 50 mg/kg/day) was 7.5%, the “pQCT Trabecular BMC, percent difference” value ([1]; mature adults, 50 mg/kg/day) was 15.1% and the “pQCT Trabecular BMD, percent difference” value ([1]; mature adults, 50 mg/kg/day) was 6.8%. For the same molecule, the “pQCT Total Area” value ([1]; mature adults, 50 mg/kg/day) was 8.1 mm^2, the “pQCT Total BMC” value ([1]; mature adults, 50 mg/kg/day) was 5.9 mg/mm and the “pQCT Total BMD” value ([1]; mature adults, 50 mg/kg/day) was 734.0 mg/cm^3. The “pQCT Trabecular Area” value ([1]; mature adults, 50 mg/kg/day) was 3.6 mm^2, the “pQCT Trabecular BMC” value ([1]; mature adults, 50 mg/kg/day) was 1.8 mg/mm and the “pQCT Trabecular BMD” value ([1]; mature adults, 50 mg/kg/day) was 486.4 mg/cm^3. For the same molecule, the “pQCT Total Area, percent difference” value ([1]; young adults, 10 mg/kg/day) was 1.7%, the “pQCT Total BMC, percent difference” value ([1]; young adults, 10 mg/kg/day) was 8.5% and the “pQCT Total BMD, percent difference” value ([1]; young adults, 10 mg/kg/day) was 6.9%. The “pQCT Trabecular Area, percent difference” value ([1]; young adults, 10 mg/kg/day) was 1.6%, the “pQCT Trabecular BMC, percent difference” value ([1]; young adults, 10 mg/kg/day) was 10.5% and the “pQCT Trabecular BMD, percent difference” value ([1]; young adults, 10 mg/kg/day) was 8.9%. The “pQCT Total Area” value ([1]; young adults, 10 mg/kg/day) was 7.4 mm^2, the “pQCT Total BMC” value ([1]; young adults, 10 mg/kg/day) was 4.9 mg/mm and the “pQCT Total BMD” value ([1]; young adults, 10 mg/kg/day) was 659.9 mg/cm^3. For the same molecule, the “pQCT Trabecular Area” value ([1]; young adults, 10 mg/kg/day) was 3.4 mm^2, the “pQCT Trabecular BMC” value ([1]; young adults, 10 mg/kg/day) was 1.6 mg/mm and the “pQCT Trabecular BMD” value ([1]; young adults, 10 mg/kg/day) was 461.6 mg/cm^3. The “pQCT Total Area, percent difference” value ([1]; young adults, 50 mg/kg/day) was −5.1%, the “pQCT Total BMC, percent difference” value ([1]; young adults, 50 mg/kg/day) was 2.7% and the “pQCT Total BMD, percent difference” value ([1]; young adults, 50 mg/kg/day) was 8.6%. The “pQCT Trabecular Area, percent difference” value ([1]; young adults, 50 mg/kg/day) was −5.0%, the “pQCT Trabecular BMC, percent difference” value ([1]; young adults, 50 mg/kg/day) was 2.7% and the “pQCT Trabecular BMD, percent difference” value ([1]; young adults, 50 mg/kg/day) was 8.9%. For the same molecule, the “pQCT Total Area” value ([1]; young adults, 50 mg/kg/day) was 6.9 mm^2, the “pQCT Total BMC” value ([1]; young adults, 50 mg/kg/day) was 4.7 mg/mm and the “pQCT Total BMD” value ([1]; young adults, 50 mg/kg/day) was 670.6 mg/cm^3. For the same molecule, the “pQCT Trabecular Area” value ([1]; young adults, 50 mg/kg/day) was 3.1 mm^2, the “pQCT Trabecular BMC” value ([1]; young adults, 50 mg/kg/day) was 1.4 mg/mm and the “pQCT Trabecular BMD” value ([1]; young adults, 50 mg/kg/day) was 461.9 mg/cm^3. The “Femur 3-point bending AUC, percent difference from Vehicle Control” value ([2]; Mature Adults, 10 mg/kg/day) was 13.4%, the “Femur 3-point bending Modulus, percent difference from Vehicle Control” value ([2]; Mature Adults, 10 mg/kg/day) was −0.2% and the “Femur 3-point bending Peak Load, percent difference from Vehicle Control” value ([2]; Mature Adults, 10 mg/kg/day) was 10.1%. For the same molecule, the “Femur 3-point bending Stiffness, percent difference from Vehicle Control” value ([2]; Mature Adults, 10 mg/kg/day) was 1.3%, the “Femur 3-point bending Toughness, percent difference from Vehicle Control” value ([2]; Mature Adults, 10 mg/kg/day) was 10.5% and the “Femur 3-point bending Ultimate Stress, percent difference from Vehicle Control” value ([2]; Mature Adults, 10 mg/kg/day) was 6.1%. The “Femur 3-point bending AUC” value ([2]; Mature Adults, 10 mg/kg/day) was 64.1 N-mm, the “Femur 3-point bending Modulus” value ([2]; Mature Adults, 10 mg/kg/day) was 6137.7 MPa and the “Femur 3-point bending Peak Load” value ([2]; Mature Adults, 10 mg/kg/day) was 149.8 N. The “Femur 3-point bending Stiffness” value ([2]; Mature Adults, 10 mg/kg/day) was 410.2 N/mm, the “Femur 3-point bending Toughness” value ([2]; Mature Adults, 10 mg/kg/day) was 7.8 MPa and the “Femur 3-point bending Ultimate Stress” value ([2]; Mature Adults, 10 mg/kg/day) was 200.5 MPa. The “Femur 3-point bending AUC, percent difference from Vehicle Control” value ([2]; Mature Adults, 50 mg/kg/day) was 8.7%, the “Femur 3-point bending Modulus, percent difference from Vehicle Control” value ([2]; Mature Adults, 50 mg/kg/day) was 1.2% and the “Femur 3-point bending Peak Load, percent difference from Vehicle Control” value ([2]; Mature Adults, 50 mg/kg/day) was 4.5%. The “Femur 3-point bending Stiffness, percent difference from Vehicle Control” value ([2]; Mature Adults, 50 mg/kg/day) was −0.9%, the “Femur 3-point bending Toughness, percent difference from Vehicle Control” value ([2]; Mature Adults, 50 mg/kg/day) was 6.6% and the “Femur 3-point bending Ultimate Stress, percent difference from Vehicle Control” value ([2]; Mature Adults, 50 mg/kg/day) was 3.4%. For the same molecule, the “Femur 3-point bending AUC” value ([2]; Mature Adults, 50 mg/kg/day) was 61.4 N-mm, the “Femur 3-point bending Modulus” value ([2]; Mature Adults, 50 mg/kg/day) was 6222.5 MPa and the “Femur 3-point bending Peak Load” value ([2]; Mature Adults, 50 mg/kg/day) was 142.1 N. The “Femur 3-point bending Stiffness” value ([2]; Mature Adults, 50 mg/kg/day) was 401.4 N/mm, the “Femur 3-point bending Toughness” value ([2]; Mature Adults, 50 mg/kg/day) was 7.5 MPa and the “Femur 3-point bending Ultimate Stress” value ([2]; Mature Adults, 50 mg/kg/day) was 195.4 MPa. The “Femur 3-point bending AUC, percent difference from Vehicle Control” value ([2]; Young Adults, 10 mg/kg/day) was 4.1%, the “Femur 3-point bending Modulus, percent difference from Vehicle Control” value ([2]; Young Adults, 10 mg/kg/day) was 2.1% and the “Femur 3-point bending Peak Load, percent difference from Vehicle Control” value ([2]; Young Adults, 10 mg/kg/day) was 0.9%. For the same molecule, the “Femur 3-point bending Stiffness, percent difference from Vehicle Control” value ([2]; Young Adults, 10 mg/kg/day) was −0.4%, the “Femur 3-point bending Toughness, percent difference from Vehicle Control” value ([2]; Young Adults, 10 mg/kg/day) was 2.5% and the “Femur 3-point bending Ultimate Stress, percent difference from Vehicle Control” value ([2]; Young Adults, 10 mg/kg/day) was 1.3%. For the same molecule, the “Femur 3-point bending AUC” value ([2]; Young Adults, 10 mg/kg/day) was 63.7 N-mm, the “Femur 3-point bending Modulus” value ([2]; Young Adults, 10 mg/kg/day) was 5154.1 MPa and the “Femur 3-point bending Peak Load” value ([2]; Young Adults, 10 mg/kg/day) was 97.9 N. For the same molecule, the “Femur 3-point bending Stiffness” value ([2]; Young Adults, 10 mg/kg/day) was 277.3 N/mm, the “Femur 3-point bending Toughness” value ([2]; Young Adults, 10 mg/kg/day) was 8.7 MPa and the “Femur 3-point bending Ultimate Stress” value ([2]; Young Adults, 10 mg/kg/day) was 155.8 MPa. For the same molecule, the “Femur 3-point bending AUC, percent difference from Vehicle Control” value ([2]; Young Adults, 50 mg/kg/day) was −19.9%, the “Femur 3-point bending Modulus, percent difference from Vehicle Control” value ([2]; Young Adults, 50 mg/kg/day) was 4.0% and the “Femur 3-point bending Peak Load, percent difference from Vehicle Control” value ([2]; Young Adults, 50 mg/kg/day) was −3.0%. For the same molecule, the “Femur 3-point bending Stiffness, percent difference from Vehicle Control” value ([2]; Young Adults, 50 mg/kg/day) was 2.0%, the “Femur 3-point bending Toughness, percent difference from Vehicle Control” value ([2]; Young Adults, 50 mg/kg/day) was −19.2% and the “Femur 3-point bending Ultimate Stress, percent difference from Vehicle Control” value ([2]; Young Adults, 50 mg/kg/day) was −2.3%. For the same molecule, the “Femur 3-point bending AUC” value ([2]; Young Adults, 50 mg/kg/day) was 49.0 N-mm, the “Femur 3-point bending Modulus” value ([2]; Young Adults, 50 mg/kg/day) was 5249.6 MPa and the “Femur 3-point bending Peak Load” value ([2]; Young Adults, 50 mg/kg/day) was 94.1 N. The “Femur 3-point bending Stiffness” value ([2]; Young Adults, 50 mg/kg/day) was 283.9 N/mm, the “Femur 3-point bending Toughness” value ([2]; Young Adults, 50 mg/kg/day) was 6.8 MPa and the “Femur 3-point bending Ultimate Stress” value ([2]; Young Adults, 50 mg/kg/day) was 150.2 MPa.
